According to patent publication US7300917B2, “Remedy for chronic disease” (Ono Pharmaceuticals Co., Ltd., priority 2002, dated 2007):
Entries after “also recorded” stand apart in the source; their conditions may differ.

What was measured:
Format in all cases: cell-based
[1] = tested on: human synovial cells (HFLS); assay: Inhibition by an EDG-2 antagonist of LPA-dependent proliferation of human synovial cells (BrdU uptake); settings: LPA 3 μM, compound 0.001 μM-10 μM, FIG. 11-12
Protocol: Proliferating activity of human synovial cells by LPA was measured by BrdU uptaking activity of the cells (HFLS CELL APPLICATION Inc.). In a medium containing serum (Synoviocyte Basal Medium/Synoviocyte Growth Supplement) the cells were suspended and they were sowed in a collagen-coated 96-well plate in a concentration of 1×10^4 cells/well and 24 hours after it was washed with Hanks solution (150 μl) twice and the medium was exchanged with serum-free medium (Synoviocyte Basal Medium) in a volume of 100 μL/well and it was cultured for 24 hours. The compound (b) or compound (c) (each in a concentration of 0.001 μM-10 μM) was simultaneously added with LPA (in a concentration of 3 μM) and 18 hours after, thereto was added BrdU and the uptaking of BrdU was measured.

[2] = tested on: human airway smooth muscle cells; assay: Inhibition by an EDG-2 antagonist of LPA-dependent proliferation of human airway smooth muscle cells (BrdU uptake); settings: LPA 3 μM; test compound 1 nM-10 μM; 6 hours; FIG. 6-7
Protocol: BSMC was sowed to an MEM-α medium (GIBCO) containing 10% FBS (fetal bovine serum), gentamicin (50 μg/ml), amfortercin B (50 ng/ml), human bFGF and human insulin in a concentration of 1×10^4 cells/well in a 96-well plate and the mixture was cultured for 24 hours. Afterwards, it was washed with Hanks solution twice, and the medium was exchanged with a serum-free medium (an MEM-α containing gentamicin (50 μg/ml) and amphortecin B (50 ng/ml)) and the mixture was cultured for another 24 hours. Thereto was added LPA (final concentration: 3 nM-10 μM) and simultaneously was added BrdU and the mixture was cultured for another 6 hours. The same amount of physiological saline was added as a control in place of LPA.
Uptaking of BrdU was measured by using cell proliferation ELISA kit (Amersham Inc.). Specifically, the cells were treated with BrdU and the cultured serum was discarded and to each well was added a cell anchorage/DNA denaturation solution (150 μl) and the mixture was allowed to stand for 30 minutes. […] Thereto was added 2N solution of sulfuric acid (25 μL) and the absorbance was measured at 450 nm by microplate reader SPECTRAMAXPRO.
By the method shown in example 4 BSMC was cultured and the test compound (final concentration: 1 nM-10 μM) was added just before adding LPA. […] After adding LPA, BrdU was added and it was cultured for 6 hours and the uptaking activity of BrdU was measured.

[3] = tested on: human prostate stroma cells; assay: Inhibition by an EDG-2 antagonist of LPA-dependent proliferation of human prostate stroma cells (BrdU uptake); settings: LPA 1 μM; test compound 1 nM to 10 μM; 24 hours; FIG. 2-4
Protocol: To an MEM-α medium containing 10% FBS (fetal bovine serum), gentamicin (50 μg/ml), amphortercin B (50 ng/mL) and human bFGF and human insulin)(GIBCO Inc.) was added PrSC 5685 in a concentration of 1×10^4 cells/well in a 96-well plate and the mixture was cultured for 24 hours. Afterwards, it was washed with Hanks solution twice and the medium was exchanged with a serum-free medium (MEM-α containing gentamicin (50 μg/ml) and amphotercin B (50 ng/ml)) and cultured for another 24 hours. Thereto was added LPA (final concentration: 1 nM-10 μM) and at the same time was added BrdU and the mixture was cultured for 24 hours. The same amount of physiological saline was added in place of LPA as a control.
Uptaking of BrdU was measured by using cell proliferation ELISA kit (Amersham Inc.). Specifically, the cells were treated with BrdU and the cultured serum was discarded and to each well was added a cell anchorage/DNA denaturation solution (150 μl) and the mixture was allowed to stand for 30 minutes. The cell anchorage/DNA denaturation solution was removed and to the mixture was added Blocking buffer (150 μl) and the mixture was allowed to stand for another 30 minutes. Next the Blocking buffer was removed and thereto was added anti-BrdU antibody solution (100 μL) labeled with peroxidase and the mixture was allowed to stand for 30 minutes. Next the antibody solution was removed and the mixture was washed with Wash buffer (PBS(−); 150 μl) three times, moisture was removed enough by tapping and thereto was added a solution of a reaction substance (3,3′,5,5′,-tetramethylbenzidine, TMB 15% solution in DMSO; 100 μL). Thereto was added 2N solution of sulfuric acid (25 μL) and the absorbance was measured at 450 nm by microplate reader SPECTRAMAXPRO.
Human-prostate stroma cells were cultured by the method described in example 2, just before adding LPA the test compound (final concentration: 1 nM to 10 μM) were added. […] After adding LPA was added BrdU and it was cultured for another 24 hours and the uptaking activity of BrdU was measured.

[4] = tested on: mouse precursor fat cells (3T3-L1); assay: Inhibition by an EDG-2 antagonist of LPA-dependent proliferation of mouse precursor fat cells (BrdU uptake); settings: compound 0.001 μM-10 μM, FIG. 9-10
Protocol: Proliferating activity of mouse precursor fat cells by LPA was measured by BrdU uptaking activity of the cells (3T3-L1). In a medium containing serum (DMEM/10% FBS (50 μg/mL); gentamicin (50 ng/mL); amphotericin B) the cells were suspended and the suspension was sowed in a concentration of 1×10^4 cells/well in a 96-well plate and it was cultured for 24 hours, and then it was washed with Hanks solution (150 μL) twice and the medium was exchanged with serum-free medium (DMEM (50 μg/mL); gentamicin (50 ng/mL); amphotericin B) and it was cultured for another 24 hours. Thereto was added the compound (b) or compound (c) in a final concentration of 0.001 μM-10 μM and 20 hours later thereto was added BrdU and 24 hours later, the uptaking of BrdU was measured.

human EDG-2 = target: T1, human EDG-2 (Homo sapiens, UniProt Q92633); assay: Evaluation of EDG-2 antagonistic activity by monitoring the change of intracellular calcium ion concentration; settings: CHO cells overexpressing human EDG-2; inhibition of intracellular calcium increase by LPA (100 nM); Fura2
T1 construct: expressed in transfected cells; host or cells: Chinese hamster ovary (CHO) cells
T1 sequence (Q92633 whole entry): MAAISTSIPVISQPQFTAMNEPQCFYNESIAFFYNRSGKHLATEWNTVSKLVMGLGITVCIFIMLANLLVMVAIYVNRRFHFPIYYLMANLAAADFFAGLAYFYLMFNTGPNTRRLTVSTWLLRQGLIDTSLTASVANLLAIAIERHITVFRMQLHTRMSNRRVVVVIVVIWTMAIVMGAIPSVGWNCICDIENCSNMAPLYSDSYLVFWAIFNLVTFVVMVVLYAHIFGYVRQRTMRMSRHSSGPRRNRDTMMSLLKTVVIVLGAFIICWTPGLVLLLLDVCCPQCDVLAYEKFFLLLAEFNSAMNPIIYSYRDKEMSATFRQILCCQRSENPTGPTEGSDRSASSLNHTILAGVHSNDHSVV
Protocol: Chinese hamster ovary (CHO) cells which overexpressed human EDG-2 gene were cultured in Ham's F12 medium (GIBCO BRL) containing 10% FBS (fetal bovine serum), penicillin/streptomycin and blasticidin (5 μg/ml). Thus cultured cells were incubated in Fura2 (5 μM)-AM solution [Ham's F12 medium containing FBS (10%), HEPES buffer (20 mM, pH 7.4) and probenecid (2.5 mM)]. Next, it was washed with Hanks solution containing HEPES buffer (20 mM, pH 7.4) and probenecid (2.5 mM) once, and immersed into the Hanks solution. Plates were set in fluorescent drug screening system and intracellular calcium ion concentration was measured for 30 seconds with no stimulation. Five minutes after adding thereto a compound to be tested (final concentration: 1 nM to 10 μM, in dimethylsulfoxide (DMSO) solution), the increase of intracellular calcium ion concentrations before and after the addition of LPA (excitation wave length: […]; fluorescent wave length: 500 nm) were measured every 3 seconds. 1-oleoyl (18:1)-LPA (Sigma) or 1-linolenoyl (18:3)-LPA was used as LPA. 1-linolenoyl (18:3)-LPA was synthesized and purified by either of the following two methods. […]

Row | IC50 (human EDG-2) [nM] | SMILES | inhibition of proliferation of human synovial cells by stimulation of LPA (BrdU uptaking activity) [1] | inhibition of proliferation of human airway smooth muscle cells by LPA stimulation (BrdU uptaking activity) [2] | inhibition of proliferation of human prostate stroma cells by LPA stimulation (BrdU uptaking activity) [3] | inhibition of proliferation of mouse precursor fat cells by LPA stimulation (BrdU uptaking activity) [4]
1 | – | COc1ccc(OC)c(CCN(CCC(=O)O)C(=O)c2ccccc2-c2ccccc2C(=O)NCc2cccnc2)c1.Cl [compound (a), 3-(N-((2-(2-((pyridin-3-ylmethylamino)carbonyl)phenyl)phenyl)carbonyl)-N-(2-(2,5-dimethoxyphenyl)ethyl)amino)propanoic acid hydrochloride] | inhibited the proliferation of human synovial cells by stimulation of LPA | suppresses the proliferation effect of normal human airway smooth muscle cells by LPA, depending on the concentration | suppresses the proliferation effect of normal human prostate stroma cells by LPA, depending on the concentration | –
2 | 1500 | COC(=O)CCSCc1ccc(-c2onc(C)c2NC(=O)OC(C)c2ccccc2Cl)cc1 (stereo not drawn) [compound (b), methyl 3-({4-[4-({[1-(2-chlorophenyl)ethoxy]carbonyl}amino)-3-methyl-5-isoxazolyl]benzyl}sulfanyl)propanoate, reference compound] | inhibits the proliferation effect of normal human precursor fat cells depending on the concentration; also recorded: inhibited the proliferation of human synovial cells by stimulation of LPA | inhibits the proliferation effect of normal human airway smooth muscle cells induced by LPA depending on the concentration | suppresses the proliferation effect of normal human prostate stroma cells by LPA, depending on the concentration | inhibits the proliferation effect of normal human precursor fat cells induced by LPA depending on the concentration; also recorded: inhibited the proliferation of mouse precursor fat cells by LPA stimulation depending on the concentration
3 | 190 | COc1cc(C(=O)N(CCCc2ccccc2)Cc2ccc(-c3ccccc3CC(=O)O)cc2)cc(OC)c1OC [compound (c), (4′-{[(3-phenylpropyl)(3,4,5-trimethoxybenzoyl)amino]methyl}-2-biphenylyl)acetic acid] | inhibits the proliferation effect of normal human synovial membrane depending on the concentration | – | suppresses the proliferation effect of normal human prostate stroma cells by LPA, depending on the concentration | inhibits the proliferation effect of normal human precursor fat cells induced by LPA depending on the concentration; also recorded: inhibited the proliferation of mouse precursor fat cells by LPA stimulation depending on the concentration
